Reference: patent US20170314056A1, “METHOD OF USING NEAR INFRARED FLUORESCENT DYES FOR IMAGING AND TARGETING CANCERS” (priority 2010, published 2017)
Entries after “also recorded” stand apart in the source; their conditions may differ.

Columns and labels:
[1] = tested on: organic anion transporting peptides (OATPs); test: Blockade of dye uptake into ARCaPM cells by BSP; type: cell-based, human; conditions: 250 μM BSP
Description: ARCaPM Cells were plated on live-cell imaging chambers from World Precision Instrument (Sarasota, Fla.) overnight. Cells were treated with 20 μM IR-780 and 250 μM BSP at the same time and cells were imaged using a Perkin-Elmer Ultraview ERS spinning disc confocal microscope.
To determine if the cyanine dye uptake and accumulation in cancer cells was dependent upon OATPs, cells were preincubated with 250 μM bromosulfophthalein (BSP), a competitive inhibitor of organic anion transporting peptides (OATPs) (25), for 5 minutes prior to incubating the cells with cyanine dyes. The uptake and accumulation of cyanine dyes in the presence and absence of BSP were conducted in the stage warmer incubator for a period of 35 minutes. The levels of cyanine dye taken up and accumulated in normal prostate (P69) and prostate cancer (ARCaPM) cells were determined and compared on a real-time basis.

[2] = mouse, in vivo
Description: In control mice, the same volume of PBS was injected. The body weight and lethality of these mice were closely followed for 28 days.

[3] = tested on: human renal cancer SN12C at subcutaneous sites; test: Structural requirement of uptake and retention by tumor tissues in mice; type: in vivo; conditions: i.p. 10 nmol per mouse, 24 hrs
Description: FIG. 46 depicts structural requirement of the uptake and retention of heptamethine cyanine dyes by tumor tissues in mice in accordance with various embodiments of the present invention. Mice bearing human renal cancer SN12C at subcutaneous sites were injected i.p. with MHI-148, IR-1, IR-2, IR-3 and IR-4 heptamethine cyanine dyes at a dose of 10 nmol per mouse. Whole-body optical imaging was taken at 24 hrs using a Kodak Imaging System.
During imaging, mice were maintained in an anesthetized state.

[4] = tested on: MIA PaCa-2 human pancreatic cancer cells; test: Structural requirement screen for cancer cell uptake and retention; type: cell-based; conditions: cultured MIA PaCa-2 cells
Description: FIG. 45 depicts structural requirement of heptamethine cyanine dyes for cancer cell uptake and retention in accordance with various embodiments of the present invention. A series of heptamethine cyanine dyes and their derivatives were screened in cultured MIA PaCa-2 human pancreatic cancer cells with parental MHI-148 served as a positive control.
Cells (1×10^4/well) were seeded on vitronectin-coated four-well chamber slides (Nalgen Nunc, Naperville, Ill.) and incubated with T-medium containing 5% FBS for 24 h. After the cells had attached to the chamber slides, the cells were washed with PBS (Phosphate Buffered Saline) and exposed to the cyanine dye at a concentration of 20 μM in T-medium. The slides were incubated at 37° C. for 30 min, washed twice with PBS to remove excess dyes, and cells were fixed with 10% formaldehyde at 4° C. The slides were then washed twice with PBS and covered with glass coverslips with an aqueous mounting medium (Sigma-Aldrich, St. Louis, Mo.). Images were recorded by confocal laser microscopy (Zeiss LSM 510 META, Germany) using a 633 nm excitation laser and 670-810 nm long pass filter, or a fluorescence microscope (Olympus 1×71; Olympus, Melville, N.Y.) equipped with a 75 W Xenon lamp and an Indo-Cyanine Green filter cube (excitation 750-800 nm; emission 820-860 nm) (Chroma, Rockingham, Vt.).

[5] = tested on: cultured human cancer cell lines in vitro and their xenograft tumors in vivo; test: Classification of heptamethine cyanine dyes as active or inactive; type: cell-based; design: key: Active: Activity of the dyes denotes specific uptake by cultured human cancer cell lines in vitro and their xenograft tumors in vivo, setermined by NIR fluorescence imaging.; Inactive: These heptamethine cyanine dyes were not accumulated in tumor cells in vitro and xenograft tumors in vivo; conditions: specific uptake in vitro and in xenograft tumors in vivo, NIR fluorescence imaging
Text: A comparative analysis also uncovered several common structural features of heptamethine cyanine dyes accounting for their preferential uptake and retention by cancer cells. […] A rigid cyclohexenyl ring in the heptamethine chain with a central chlorine atom maintains photostability, increases quantum yield, decreases photobleaching, and reduces dye aggregation in solution (1).

SMILES	effect on uptake of IR-780 by ARCaPM cells ([1]; 20 μM IR-780)	effect on uptake of IR-783 by ARCaPM cells ([1]; 20 μM IR-783)	toxicity as evidenced by gains of body weight [2]	tumor fluorescence signal in whole-body optical imaging [3]	uptake and retention by cancer cell line compared with MHI-148 [4]	Active and inactive heptamethine cyanine dyes [5]
O=C1OC(c2ccc(O)c(S(=O)(=O)O)c2)(c2ccc(O)c(S(=O)(=O)O)c2)c2c(Br)c(Br)c(Br)c(Br)c21 [BSP, bromosulfophthalein]	complete blockade; also recorded: significantly inhibited	abolished; also recorded: abrogated	–	–	–	–
CC1(C)C(/C=C/C=C/C=C/C=C2\N(CCCCS(=O)(=O)O)c3ccc4ccccc4c3C2(C)C)=[N+](CCCCS(=O)(=O)[O-])c2ccc3ccccc3c21 [ICG, indocyanine green, reference compound]	–	–	no toxicity was detected	–	–	–
CC1(C)/C(=C\C=C2/CCCC(/C=C/C3N(CCCO)c4ccccc4C3(C)C)=C2Cl)N(CCCO)c2ccccc21 (stereo not drawn) [IR-1]	–	–	–	background fluorescence signals	devoid of any uptake and retention	Inactive dyes^b
CC(=O)OCCCN1/C(=C/C=C2\CCCC(/C=C/C3N(CCCOC(C)=O)c4ccccc4C3(C)C)=C2Cl)C(C)(C)c2ccccc21 (stereo not drawn) [IR-2]	–	–	–	background fluorescence signals	devoid of any uptake and retention	Inactive dyes^b
CC1(C)/C(=C\C=C2/CCCC(/C=C/C3N(CCCN)c4ccccc4C3(C)C)=C2Cl)N(CCCN)c2ccccc21 (stereo not drawn) [IR-3]	–	–	–	background fluorescence signals	devoid of any uptake and retention	Inactive dyes^b
